Results on twelve compounds are retold here after ChEMBL document CHEMBL1201862, “PubChem BioAssay data set” (2004).

Test systems include HT-29; SK-MEL-2; HOP-92; OVCAR-5; UO-31; UACC-257; NCI-H460; MOLT-4; CAKI-1; CCRF-CEM; NCI-H226; RXF 393; SW-620; SNB-75; IGROV-1; TK-10; NCI/ADR-RES; MDA-MB-435; DU-145.
What all share (assay): inhibition of tumour cell growth, NCI panel, 48 h

Structures are written as SMILES.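 96-well plates; 48 h exposure; 5 concentrations. Endpoints by linear interpolation between flanking doses. Not reached: highest tested concentration assigned. GI50 is the concentration that inhibits growth by half.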 Calls of active or inactive are those of the source. Rule as the data show it: active = GI50 up to about 1.1 µM and inactive = higher.

With `CC(=O)NNc1nc(C)c(C(=O)NNC(=O)C(=O)Nc2ccc(C)c(C)c2)s1`, the GI50 in the assay with HT-29 is > 100 µM (inactive); in the assay with SK-MEL-2 it was > 100 µM (inactive); with HOP-92, > 100 µM (inactive); in the assay on OVCAR-5, > 100 µM (inactive); in the assay with UO-31 it was 74 µM (inactive); with UACC-257, > 100 µM (inactive). In addition, the GI50 in the assay with NCI-H460 is 95.3 µM (inactive); in the assay on MOLT-4, 39.6 µM (inactive); in the assay with CAKI-1, > 100 µM (inactive); in the assay with CCRF-CEM it was 42.2 µM (inactive); in the assay with NCI-H226, > 100 µM (inactive); in the assay with RXF 393 it was > 100 µM (inactive). Also, the GI50 in the assay with SW-620, in the assay with SNB-75, in the assay on IGROV-1 and with TK-10 was > 100 µM (inactive) in each case.

Take `COC(=O)CCc1cccnc1/C=N/O`: the GI50 in the assay on HT-29, in the assay with SK-MEL-2, in the assay with HOP-92, in the assay with OVCAR-5, in the assay on UO-31 and in the assay on UACC-257 was > 100 µM (inactive) each time. Besides, the GI50 was 27.4 µM (inactive) in the assay on NCI-H460; > 100 µM (inactive) in the assay on MOLT-4; > 100 µM (inactive) in the assay with CAKI-1; 96.4 µM (inactive) in the assay with CCRF-CEM; > 100 µM (inactive) in the assay on NCI-H226; > 100 µM (inactive) with RXF 393. For the same compound, the GI50 with SW-620 was 87.5 µM (inactive); in the assay with SNB-75, > 100 µM (inactive); with IGROV-1, > 100 µM (inactive); in the assay with TK-10, 55.7 µM (inactive).

For the compound `O=C(Nc1ccccc1)O/N=C1/CCCC/C1=C\c1ccccc1`, the GI50 was 28.2 µM (inactive) with HT-29; 15 µM (inactive) in the assay on SK-MEL-2; 22.9 µM (inactive) in the assay on HOP-92; 26.2 µM (inactive) with OVCAR-5; 13.2 µM (inactive) with UO-31; 19.5 µM (inactive) with UACC-257. The GI50 with NCI-H460 was 15.1 µM (inactive); with MOLT-4 it was 5.53 µM (inactive); with CAKI-1 it was 15.7 µM (inactive); with CCRF-CEM, 10.7 µM (inactive); in the assay on NCI-H226 it was 24.9 µM (inactive); in the assay on RXF 393 it was 16.3 µM (inactive). Besides, the GI50 with SW-620 is 16.3 µM (inactive); in the assay with SNB-75, 13.9 µM (inactive); with IGROV-1 it was 3.55 µM (inactive); in the assay on TK-10, 17.9 µM (inactive).

On to `CN/N=C(/CC(=O)c1sc(-n2nc(-c3ccccc3)cc2-c2ccccc2)nc1C)C(=O)Nc1ccc(Cl)c(Cl)c1`, for which the GI50 was 25.9 µM (inactive) in the assay on HT-29; > 100 µM (inactive) in the assay with SK-MEL-2; 14.1 µM (inactive) in the assay on HOP-92; 16.1 µM (inactive) in the assay with OVCAR-5; 21.2 µM (inactive) in the assay with UO-31; 30.6 µM (inactive) in the assay with UACC-257. Further, the GI50 with NCI-H460 is 57.3 µM (inactive); in the assay on MOLT-4 it was 16.7 µM (inactive); in the assay on CAKI-1 it was 14.7 µM (inactive); with CCRF-CEM it was 27.7 µM (inactive); in the assay on NCI-H226 it was 17.2 µM (inactive); with RXF 393, 26.2 µM (inactive). Besides, the values for the GI50 in the assay on SW-620 and in the assay with IGROV-1 were 57.5 µM (inactive) and 61 µM (inactive), respectively.

With `C=C1C(=O)OC2C1CC[C@H](C)C1(O)C(O)CC(=O)[C@@]21C` (some centres not stated), the GI50 was 20.4 µM (inactive) with HT-29; 27.2 µM (inactive) in the assay with SK-MEL-2; 27.7 µM (inactive) in the assay on HOP-92; 21 µM (inactive) in the assay with OVCAR-5; 28.6 µM (inactive) with UO-31; 14.4 µM (inactive) with UACC-257. In addition, the GI50 in the assay on NCI-H460 was 36.5 µM (inactive); with MOLT-4, 14.4 µM (inactive); in the assay on CAKI-1, 27.7 µM (inactive); in the assay on CCRF-CEM, > 10 µM (inactive); in the assay with NCI-H226, 21.7 µM (inactive); in the assay with RXF 393, > 10 µM (inactive). Besides, the GI50 in the assay on SW-620 was 20.6 µM (inactive); in the assay with SNB-75, 24.7 µM (inactive); in the assay on IGROV-1 it was 28.8 µM (inactive); with TK-10 it was > 10 µM (inactive).

Take `CNC(=O)OCc1nc(SC(C)C)n(C)c1COC(=O)NC`: the GI50 with HT-29, in the assay on NCI/ADR-RES, in the assay with SK-MEL-2, with HOP-92, with OVCAR-5 and with UO-31 was > 100 µM (inactive) each time. The GI50 with UACC-257 is > 100 µM (inactive); in the assay on NCI-H460, 72.8 µM (inactive); with MOLT-4, 44.8 µM (inactive); in the assay on CAKI-1, > 72.3 µM (inactive); in the assay on CCRF-CEM it was 48.5 µM (inactive); in the assay with NCI-H226, > 100 µM (inactive). For the same compound, the GI50 is 33.4 µM (inactive) with RXF 393, > 100 µM (inactive) in the assay with SW-620, > 100 µM (inactive) in the assay with SNB-75 and > 100 µM (inactive) in the assay on IGROV-1.

In the case of `N/N=C1/C(=O)N(c2ccc(Cl)cc2)C(=O)C(=O)C1c1nc2ccccc2s1` (configuration not stated), the GI50 in the assay with HT-29, in the assay with SK-MEL-2, in the assay on HOP-92, in the assay on OVCAR-5, in the assay on UO-31 and in the assay with UACC-257 was > 100 µM (inactive) each time. Moreover, the GI50 in the assay on NCI-H460 is > 100 µM (inactive); with MOLT-4, > 100 µM (inactive); in the assay on CAKI-1 it was > 68.2 µM (inactive); in the assay with CCRF-CEM, 74.6 µM (inactive); in the assay on RXF 393 it was > 100 µM (inactive); in the assay with SW-620, > 100 µM (inactive). The GI50 in the assay with SNB-75 was > 65.6 µM (inactive); with IGROV-1, > 100 µM (inactive); in the assay on TK-10 it was > 100 µM (inactive).

For `CC1(C)CC(O)CC(C)(C)N1O` [TEMPOL HYDROXYLAMINE], the GI50 with HT-29, in the assay on NCI/ADR-RES, in the assay on SK-MEL-2, in the assay with OVCAR-5, in the assay with UO-31 and with UACC-257 was > 100 µM (inactive) each time. Also, the GI50 in the assay with NCI-H460, with MOLT-4, in the assay with CAKI-1, in the assay with CCRF-CEM, with MDA-MB-435 and in the assay with RXF 393 was > 100 µM (inactive) in each case. Besides, the GI50 in the assay on SW-620, with SNB-75, with IGROV-1, with DU-145 and in the assay on TK-10 was > 100 µM (inactive) each time.

Regarding `CC(C)=CC1CCc2ccccc2N1S(=O)(=O)c1ccc(C)cc1` (configuration not stated), the GI50 is 1.36 µM (inactive) with HT-29; 1.79 µM (inactive) in the assay on SK-MEL-2; 0.433 µM (active) in the assay on HOP-92; 14.8 µM (inactive) with OVCAR-5; 3.61 µM (inactive) with UO-31; 2.27 µM (inactive) with UACC-257. Also, the GI50 is 1.36 µM (inactive) with NCI-H460; 1.18 µM (inactive) in the assay with MOLT-4; 0.373 µM (active) in the assay with CCRF-CEM; 1.77 µM (inactive) with NCI-H226; 1.24 µM (inactive) with RXF 393; 0.726 µM (active) in the assay on SW-620. Moreover, the values for the GI50 in the assay on SNB-75, in the assay with IGROV-1 and in the assay on TK-10 were 1.17 µM (inactive), 2.4 µM (inactive) and 2.81 µM (inactive), respectively.

Consider `[N-]=[N+]=NC(CI)c1cn([C@H]2C[C@H](O)[C@@H](CO)O2)c(=O)[nH]c1=O` (some centres not stated), for which the GI50 in the assay with HT-29 was > 100 µM (inactive); in the assay with SK-MEL-2, > 100 µM (inactive); in the assay on HOP-92 it was > 100 µM (inactive); in the assay on OVCAR-5, > 100 µM (inactive); in the assay on UO-31, > 100 µM (inactive); with NCI-H460 it was 29.8 µM (inactive). Moreover, the GI50 with MOLT-4, with CAKI-1, in the assay with CCRF-CEM, in the assay on NCI-H226, in the assay on RXF 393 and in the assay on SW-620 was > 100 µM (inactive) throughout. The GI50 in the assay on SNB-75, in the assay with IGROV-1 and in the assay with TK-10 was > 100 µM (inactive) each time.

Regarding `CC(=O)NC1C(OCc2ccccc2)OC(COC(=O)CCCCCCCCCCNC(=O)CCNc2ccc([N+](=O)[O-])c3[nH]c4ccc(O)cc4c(=O)c23)C(O)C1OC(C)C(=O)N[C@H](C(=O)N[C@H](CCC(=O)O)C(N)=O)C(C)C` (some centres not stated), the GI50 in the assay with HT-29 is 56.2 µM (inactive); in the assay on SK-MEL-2, 28.8 µM (inactive); in the assay with HOP-92, 28.7 µM (inactive); in the assay on OVCAR-5, 54.3 µM (inactive); with UO-31 it was 55.2 µM (inactive); with UACC-257 it was > 100 µM (inactive). Moreover, the GI50 with NCI-H460 is > 100 µM (inactive); in the assay with MOLT-4, 43.2 µM (inactive); in the assay with CAKI-1, > 100 µM (inactive); in the assay on CCRF-CEM, 33 µM (inactive); in the assay on NCI-H226, 36.3 µM (inactive); with RXF 393 it was 69.3 µM (inactive). For the same compound, the GI50 is 17.1 µM (inactive) in the assay with SNB-75, > 100 µM (inactive) in the assay on IGROV-1 and > 100 µM (inactive) in the assay with TK-10.

As for `[O-][S+]1c2ccc(Cl)cc2CC(SSC2Cc3cc(Cl)ccc3[S+]([O-])c3ccccc32)c2ccccc21` (configuration not stated), the GI50 with HT-29, with SK-MEL-2, in the assay on HOP-92, in the assay with OVCAR-5, with UO-31 and in the assay on UACC-257 was > 100 µM (inactive) each time. Besides, the GI50 with NCI-H460, with MOLT-4, in the assay with CAKI-1, with CCRF-CEM, in the assay on NCI-H226 and with RXF 393 was > 100 µM (inactive) each time. In addition, the GI50 in the assay with SW-620, in the assay on SNB-75, in the assay on IGROV-1 and in the assay on TK-10 was > 100 µM (inactive) each time.
